Measurements as given in patent publication US20220372013A2, “PIPERIDINE-2,6-DIONE DERIVATIVES AND CROHN'S DISEASE TREATING” (Tianjin Hemay Pharmaceutical Sci-Tech Co., Ltd, priority 2016, published 2022).
Where two headings read alike, the source gives them in different places. Marks after values point to notes of the source that are not given here.

How the values were obtained:
mice = experiment: Biological Example 5: acute toxicity experiment of single oral administration in mice; assay type: in vivo; conditions: single oral 1000 mg/Kg, Mean ± SD
Procedure: The mice were fasted one day before the experiment. On the day of the experiment, 6 mice (ICR mice, body weight of 19-21 g, three females and three males) were selected in each experiment group. First of all, one female and one male were selected to orally give 1000 mg/Kg, and observed for 5-10 minutes. If there were no obvious side effects, the remaining 4 animals were orally given the same dose, and observed for 10-15 minutes. If no animal died, the animals were placed in a box to balancedly feed for 7 days. The state was observed and the body weight was recorded daily.
Observation Indexes within 0-15 Minutes after Administration
Activity: restlessness, hyperactivity
Nervous system response: tremor, spasm, convulsion, ataxia, posture abnormality, etc.
Autonomic nerve: exophthalmos, salivation, tears, urination (hematuria), diarrhea, piloerection, breathing, etc.
State of Animal: lethargy, hyperactivity, excitement, hair loss, diarrhea, abnormal behavior, death, etc.

[1] = tested on: DNBS-Induced Inflammatory Bowel Disease Models in Rats; experiment: Biological Example 3: DNBS-induced inflammatory bowel disease models in rats; assay type: in vivo, Wistar rats; conditions: 30 mg/Kg i.g. qd × 7; for Adhesion Degree of Colon / Colon weight to length ratio / Inhibitory rate of colon adhesion / Inhibitory rate of ulcer area of colon / Inhibitory rate of weight increase per length / Ulcer area of colon: day 7; for Body weight: Mean ± SD
Procedure: (§1) 102 male Wistar rats were fasted for 40 hours. A 5% glucose injection (10 mL/Kg) was administered subcutaneously during fasting. 72 rats with normal conditions and moderate body weight were selected from the fasting rats. The animals were randomly divided into 9 groups according to the body weight (see Table 9. Grouped Table).
(§2) The animals were anesthetized with ether after 40 hours fasting. A specially made gavage device was slowly inserted into the enteric cavity at 8 cm from the anus. The model control group and each test group were administered with 0.5 mL of 50 mg/mL DNBS in 30% ethanol solution. The normal control group was administered with 0.5 mL of 30% ethanol solution. The animals were inverted in anesthesia for 15 minutes. The day when the model was prepared was day 0 of the experiment. After 4 hours of DNBS induction, the corresponding drug or the corresponding volume of 1% CMC-Na was administered once per day. On day 7 of the experiment, the animals were euthanized to score the colon adhesion degree, measure the length of colon and ulcer area, weigh colon and calculate the colon weight to length ratio.
(§3) One-way ANOVA analysis of the length of colon and colon weight per length of rats was performed by SPSS22. Statistical analyses between groups were performed. The adhesion degree was scored. Mann-Whitney U non-parametric test was performed on ulcer area. Statistical analyses between groups were performed.
(§4) Calculation Formula of Inhibitory rate of weight increase per length: (Colon weight to length ratio in model group−Colon weight to length ratio in administration group)/(Colon weight to length ratio in model group−Colon weight to length ratio in blank group)

[2] = tested on: DNBS-Induced Inflammatory Bowel Disease Models in Rats; experiment: Biological Example 4: DNBS-induced inflammatory bowel disease models in rats; assay type: in vivo, Wistar rats; conditions: 30 mg/Kg i.g. qd × 7; for Adhesion Degree of Colon / Colon weight to length ratio / Ulcer area of colon / inhibition in vivo at 30 mg/kg: day 7; for Body weight: Mean ± SD; for inhibition in vivo at 30 mg/kg: Rattus norvegicus, po, 168 h
Procedure: as §1, with “72” for “40”, “injection” for “injection (10 mL/Kg)”, “subcutaneously twice” for “subcutaneously”, “88” for “72”, “11” for “9”, “11.” for “9.”
as §2, with “72” for “40”
as §3, §4

[3] = read-out: Inhibitory rate of colon adhesion
[4] = read-out: Inhibitory rate of ulcer area of colon
[5] = read-out: Inhibitory rate of weight increase per length

## COCCN1C(=O)CCC(N2C(=O)c3cccc(F)c3C2=O)C1=O (stereo not shown) [Example 4, 4-fluoro-2-(1-(2-methoxyethyl)-2,6-dioxopiperidin-3-yl)isoindolin-1,3-dione]
mice; Female mice, Day 1
  Daily Body Weight: 18.4 ± 0.4 g
mice; Female mice, Day 2
  Daily Body Weight: 21.8 ± 0.5 g
mice; Female mice, Day 3
  Daily Body Weight: 23.2 ± 0.6 g
mice; Female mice, Day 4
  Daily Body Weight: 23.5 ± 1.2 g
mice; Female mice, Day 5
  Daily Body Weight: 24.7 ± 0.9 g
mice; Female mice, Day 6
  Daily Body Weight: 24.2 ± 1.2 g
mice; Female mice, Day 7
  Daily Body Weight: 24.0 ± 0.8 g
mice; Male mice, Day 1
  Daily Body Weight: 17.6 ± 0.2 g
mice; Male mice, Day 2
  Daily Body Weight: 22.2 ± 0.3 g
mice; Male mice, Day 3
  Daily Body Weight: 23.6 ± 0.6 g
mice; Male mice, Day 4
  Daily Body Weight: 24.7 ± 0.6 g
mice; Male mice, Day 5
  Daily Body Weight: 26.7 ± 0.4 g
mice; Male mice, Day 6
  Daily Body Weight: 27.6 ± 0.8 g
mice; Male mice, Day 7
  Daily Body Weight: 28.2 ± 0.1 g
[1]
  Adhesion Degree of Colon: 0.6 ± 0.7 point
  Colon weight to length ratio: 125 ± 34 mg/cm
  Inhibitory rate of colon adhesion: 64.7## %
  Inhibitory rate of ulcer area of colon: 81.2# %
  Inhibitory rate of weight increase per length: 38.0%
  Ulcer area of colon: 0.58 ± 0.78# cm^2
[1]; Day 0
  Body weight: 137.1 ± 6.2 g
[1]; Day 1
  Body weight: 136.2 ± 4.1 g
[1]; Day 2
  Body weight: 138.2 ± 6.9 g
[1]; Day 3
  Body weight: 141.1 ± 8.8 g
[1]; Day 4
  Body weight: 151.8 ± 13.4 g
[1]; Day 5
  Body weight: 162.5 ± 13.0 g
[1]; Day 6
  Body weight: 170.8 ± 13.0 g
[1]; Day 7
  Body weight: 181.0 ± 12.2 g

## COCCN1C(=O)CCC(N2C(=O)c3ccc(N)cc3C2=O)C1=O (stereo not shown) [Example 7, 5-amino-2-(1-(2-methoxyethyl)-2,6-dioxopiperidin-3-yl)isoindolin-1,3-dione]
[1]
  Adhesion Degree of Colon: 0.9 ± 0.8 point
  Colon weight to length ratio: 127 ± 52 mg/cm
  Inhibitory rate of colon adhesion: 47.1# %
  Inhibitory rate of ulcer area of colon: 75.1%
  Inhibitory rate of weight increase per length: 35.4%
  Ulcer area of colon: 0.77 ± 1.05 cm^2
[1]; Day 0
  Body weight: 136.1 ± 2.5 g
[1]; Day 1
  Body weight: 136.7 ± 3.7 g
[1]; Day 2
  Body weight: 137.0 ± 8.7 g
[1]; Day 3
  Body weight: 141.6 ± 11.9 g
[1]; Day 4
  Body weight: 148.2 ± 12.7 g
[1]; Day 5
  Body weight: 159.2 ± 13.2 g
[1]; Day 6
  Body weight: 168.0 ± 15.7 g
[1]; Day 7
  Body weight: 173.5 ± 18.5 g

## COCCCN1C(=O)CCC(N2C(=O)c3cccc(NC(C)=O)c3C2=O)C1=O (stereo not shown) [Example 16, 4-acetylamino-2-(1-(3-methoxypropyl)-2,6-dioxopiperidin-3-yl)isoindolin-1,3-dione]
[1]
  Adhesion Degree of Colon: 1.1 ± 0.8 point
  Colon weight to length ratio: 114 ± 23 mg/cm
  Inhibitory rate of colon adhesion: 35.3%
  Inhibitory rate of ulcer area of colon: 72.8# %
  Inhibitory rate of weight increase per length: 51.9# %
  Ulcer area of colon: 0.84 ± 1.25# cm^2
[1]; Day 0
  Body weight: 137.3 ± 1.7 g
[1]; Day 1
  Body weight: 135.9 ± 3.7 g
[1]; Day 2
  Body weight: 137.6 ± 7.0 g
[1]; Day 3
  Body weight: 145.0 ± 9.2 g
[1]; Day 4
  Body weight: 155.2 ± 10.9 g
[1]; Day 5
  Body weight: 166.8 ± 10.2 g
[1]; Day 6
  Body weight: 171.5 ± 15.1 g
[1]; Day 7
  Body weight: 184.3 ± 13.8 g

## COCCN1C(=O)CCC(N2C(=O)c3ccc(F)cc3C2=O)C1=O (stereo not shown) [Example 21, 5-fluoro-2-(1-(2-methoxyethyl)-2,6-dioxopiperidin-3-yl)-isoindolin-1,3-dione]
[1]
  Adhesion Degree of Colon: 0.9 ± 0.7 point
  Colon weight to length ratio: 104 ± 17 mg/cm
  Inhibitory rate of colon adhesion: 47.1# %
  Inhibitory rate of ulcer area of colon: 70.0%
  Inhibitory rate of weight increase per length: 64.6## %
  Ulcer area of colon: 0.93 ± 1.52 cm^2
[1]; Day 0
  Body weight: 135.6 ± 6.9 g
[1]; Day 1
  Body weight: 134.4 ± 6.8 g
[1]; Day 2
  Body weight: 133.9 ± 6.8 g
[1]; Day 3
  Body weight: 138.7 ± 6.8 g
[1]; Day 4
  Body weight: 146.4 ± 6.9 g
[1]; Day 5
  Body weight: 157.9 ± 8.9 g
[1]; Day 6
  Body weight: 168.3 ± 4.6 g
[1]; Day 7
  Body weight: 173.5 ± 7.4 g

## COCCN1C(=O)CCC(N2C(=O)c3cccc(O)c3C2=O)C1=O (stereo not shown) [Example 23, 4-hydroxy-2-(1-(2-methoxyethyl)-2,6-dioxopiperidin-3-yl)isoindolin-1,3-dione]
[2]
  Adhesion Degree of Colon: 0.8 ± 0.7 point
  Colon weight to length ratio: 105 ± 12 mg/cm
  Ulcer area of colon: 0.2 ± 0.3# cm^2
[2]; Day 1
  Body weight: 126.6 ± 8.5 g
[2]; Day 2
  Body weight: 123.2 ± 9.0 g
[2]; Day 3
  Body weight: 123.9 ± 7.6 g
[2]; Day 4
  Body weight: 136.5 ± 11.8 g
[2]; Day 5
  Body weight: 148.1 ± 14.5 g
[2]; Day 6
  Body weight: 152.1 ± 15.9 g
[2]; Day 7
  Body weight: 166.8 ± 12.8 g
[2]; [3]
  inhibition in vivo at 30 mg/kg: 62.2%
[2]; [4]
  inhibition in vivo at 30 mg/kg: 91.7%
[2]; [5]
  inhibition in vivo at 30 mg/kg: 67.1%
mice; Female mice, Day 1
  Daily Body Weight: 19.1 ± 0.6 g
mice; Female mice, Day 2
  Daily Body Weight: 22.4 ± 0.4 g
mice; Female mice, Day 3
  Daily Body Weight: 23.0 ± 0.1 g
mice; Female mice, Day 4
  Daily Body Weight: 23.0 ± 0.1 g
mice; Female mice, Day 5
  Daily Body Weight: 24.6 ± 0.4 g
mice; Female mice, Day 6
  Daily Body Weight: 24.8 ± 0.7 g
mice; Female mice, Day 7
  Daily Body Weight: 24.6 ± 0.4 g
mice; Male mice, Day 1
  Daily Body Weight: 19.4 ± 0.8 g
mice; Male mice, Day 2
  Daily Body Weight: 24.6 ± 1.2 g
mice; Male mice, Day 3
  Daily Body Weight: 24.5 ± 0.6 g
mice; Male mice, Day 4
  Daily Body Weight: 24.5 ± 0.6 g
mice; Male mice, Day 5
  Daily Body Weight: 25.4 ± 1.2 g
mice; Male mice, Day 6
  Daily Body Weight: 28.1 ± 0.8 g
mice; Male mice, Day 7
  Daily Body Weight: 29.0 ± 0.8 g

## COCCN1C(=O)CCC(N2C(=O)c3cccc(C)c3C2=O)C1=O (stereo not shown) [Example 24, 4-methyl-2-(1-(2-methoxyethyl)-2,6-dioxopiperidin-3-yl)-isoindolin-1,3-dione]
[2]
  Adhesion Degree of Colon: 0.8 ± 0.7 point
  Colon weight to length ratio: 99 ± 18 mg/cm
  Ulcer area of colon: 0.3 ± 0.3 cm^2
[2]; Day 1
  Body weight: 129.1 ± 5.5 g
[2]; Day 2
  Body weight: 130.9 ± 10.4 g
[2]; Day 3
  Body weight: 133.2 ± 14.5 g
[2]; Day 4
  Body weight: 135.3 ± 13.6 g
[2]; Day 5
  Body weight: 144.9 ± 12.6 g
[2]; Day 6
  Body weight: 145.9 ± 13.3 g
[2]; Day 7
  Body weight: 165.6 ± 12.1 g
[2]; [3]
  inhibition in vivo at 30 mg/kg: 62.2%
[2]; [4]
  inhibition in vivo at 30 mg/kg: 87.5%
[2]; [5]
  inhibition in vivo at 30 mg/kg: 74.1%
mice; Female mice, Day 1
  Daily Body Weight: 18.4 ± 0.7 g
mice; Female mice, Day 2
  Daily Body Weight: 22.4 ± 1.0 g
mice; Female mice, Day 3
  Daily Body Weight: 23.4 ± 1.0 g
mice; Female mice, Day 4
  Daily Body Weight: 23.6 ± 0.9 g
mice; Female mice, Day 5
  Daily Body Weight: 24.3 ± 0.6 g
mice; Female mice, Day 6
  Daily Body Weight: 24.7 ± 0.6 g
mice; Female mice, Day 7
  Daily Body Weight: 24.8 ± 1.5 g
mice; Male mice, Day 1
  Daily Body Weight: 17.7 ± 0.2 g
mice; Male mice, Day 2
  Daily Body Weight: 22.3 ± 0.7 g
mice; Male mice, Day 3
  Daily Body Weight: 24.5 ± 1.0 g
mice; Male mice, Day 4
  Daily Body Weight: 25.2 ± 1.0 g
mice; Male mice, Day 5
  Daily Body Weight: 27.2 ± 1.3 g
mice; Male mice, Day 6
  Daily Body Weight: 28.1 ± 2.0 g
mice; Male mice, Day 7
  Daily Body Weight: 28.9 ± 1.9 g
